Reference: publication PMC6026847, “Synthesis and Evaluation of the First Fluorescent Antagonists of the Human P2Y2 Receptor Based on AR-C118925” (Journal of Medicinal Chemistry, 2018)
Read-outs that look alike come from different tables or passages of the source. Blank lines part the entries; values can stand above or below the compound they belong to.

What was measured:
hP2Y2R = molecular target: T1, hP2Y2R (Homo sapiens, UniProt P41231); experiment: Calcium-mobilization assay in P2Y2-1321N1 cells (antagonism of UTPγS); assay type: cell-based; conditions: for hP2Y2 pKb / Kb: Gaddum equation; for hP2Y2R antagonist activity in words: calcium-mobilization assay
T1 construct: The 1321N1 cells expressing wild-type P2Y2R (P2Y2R-1321N1) were gifted by Dr. Elizabeth Rosethorne; expressed in transfected cells; host or cells: 1321N1 astrocytoma cells (P2Y2R-1321N1), gifted
T1 sequence (P41231 whole entry): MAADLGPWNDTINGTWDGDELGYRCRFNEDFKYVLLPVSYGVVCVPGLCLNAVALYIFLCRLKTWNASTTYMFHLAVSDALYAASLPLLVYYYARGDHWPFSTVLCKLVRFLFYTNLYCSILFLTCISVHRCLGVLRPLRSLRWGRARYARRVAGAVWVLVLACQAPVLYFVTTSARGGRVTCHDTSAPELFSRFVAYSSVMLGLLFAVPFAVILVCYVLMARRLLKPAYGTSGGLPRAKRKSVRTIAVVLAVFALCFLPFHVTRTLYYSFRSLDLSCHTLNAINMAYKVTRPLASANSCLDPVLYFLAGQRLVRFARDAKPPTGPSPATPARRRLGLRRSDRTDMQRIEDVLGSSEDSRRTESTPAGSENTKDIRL

NLuc-P2Y2R = molecular target: T2, NLuc-P2Y2R (Homo sapiens, UniProt P41231); experiment: NanoBRET saturation binding in NLuc-P2Y2R 1321N1 astrocytoma cells; conditions: for specific NanoBRET signal: fixed 10 μM fluorescent conjugate in presence or absence of 10 μM 1, among 78–91 (Figure S1); for NanoBRET pKd: Table 4
T2 construct: expressed in transfected cells
T2 sequence (P41231 2-377 limits assumed): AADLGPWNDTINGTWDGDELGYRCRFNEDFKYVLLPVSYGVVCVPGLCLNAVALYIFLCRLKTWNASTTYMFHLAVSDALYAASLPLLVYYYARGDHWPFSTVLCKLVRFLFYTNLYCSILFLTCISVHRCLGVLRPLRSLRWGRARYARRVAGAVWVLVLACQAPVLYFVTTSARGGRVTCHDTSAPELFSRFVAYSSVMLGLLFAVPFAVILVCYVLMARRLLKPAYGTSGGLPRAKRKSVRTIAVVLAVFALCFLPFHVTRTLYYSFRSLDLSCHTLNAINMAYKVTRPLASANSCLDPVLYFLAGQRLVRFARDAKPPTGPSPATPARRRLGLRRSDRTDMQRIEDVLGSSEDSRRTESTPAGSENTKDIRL
Experimental: To determine whether any of these conjugates had affinities for P2Y2R and consequently if they could be used in NanoBRET binding assays, a 1321N1 astrocytoma cell line expressing recombinant P2Y2R tagged on its N-terminus with NLuc (NLuc-P2Y2R) was generated. […] These NLuc-P2Y2 cells were treated with increasing concentrations of 66–69 and then treated with the NLuc substrate, furimazine, before the resulting BRET signal was monitored. […] However, this did illustrate the power of using NanoBRET to monitor ligand binding to low-affinity receptors.
Nucleophilic displacement of the 2-chloro substituent of 43 by either tert-butyl 3-aminopropanoate or tert-butyl 6-aminohexanoate gave the corresponding tert-butyl esters (70 and 71). […] The carboxylic acids were generated from the tert-butyl esters via TFA-mediated hydrolysis and subsequently coupled with tert-butyl (2-aminoethyl)carbamate or tert-butyl (2-(2-aminoethoxy)ethyl)carbamate to generate the corresponding amides (74–77). The Boc protecting groups were removed using TFA, and the resulting amines were coupled with the appropriate commercially available BODIPY succinimidyl ester (SE), generating a small library of 14 fluorescent conjugates (78–91). These fluorescent conjugates were initially tested using the aforementioned NanoBRET binding assay at fixed concentrations of 10 μM in the presence or absence of 10 μM 1 (see Figure S1 in the Supporting Information).
The saturation and competition binding assays were performed according to the methodology of Stoddart.[18] Briefly, the assays were performed on stably transfected NLucP2Y2-1321N1 cells that had been seeded 24 h prior to the experiment in white Thermo Scientific Matrix 96-well microplates. The medium in each well was removed and replaced with HBSS containing apyrase (1 U/mL) and the required concentration of the fluorescent ligand with or without the competing ligand. Upon the addition of the fluorescent ligand, the cells were incubated for 1 h at 37 °C without CO2. The NLuc substrate, furimazine (Promega), was then added to a final concentration of 10 μM, and the plate was incubated for a further 5 min at 37 °C without CO2. The luminescence and resulting BRET were measured using a PHERAstar FS plate reader (BMG Labtech) at room temperature. For the assays involving 97, sequential measurements of the filtered light emissions were made at 460 nm (80 nm bandpass) and >610 nm (long-pass), and the raw BRET ratios were calculated by dividing the >610 nm emissions by the 460 nm emissions. For the assays involving 98, the measurements were made at 475 nm (30 nm bandpass) and 535 nm (30 nm bandpass), and the raw BRET ratios were calculated by dividing the 535 nm emissions by the 475 nm emissions.
The total and nonspecific saturation binding curves were fitted simultaneously using eq 2: [drawing 7] 2 where Bmax is the maximum specific BRET signal, [b] is the nanomolar concentration of the fluorescent ligand, Kd is the equilibrium dissociation constant in nanomolar, M is the slope of the nonspecific-binding component, and C is the intercept with the Y-axis. The pKd is −logKd.

[1] = Table 2, shift of UTPγS concentration–response curve by a single antagonist concentration, mean ± SEM
[2] = Table 2, shift of UTPγS concentration–response curve by a single antagonist concentration, mean ± SEM, read-out: hP2Y2 pKb (converted)
[3] = Table 3, resolved enantiomers, shift of UTPγS curve, mean ± SEM, read-out: hP2Y2 pKb (converted)
[4] = saturation binding curves, 1321N1 cells expressing NLuc-P2Y2R, mean ± SEM

Compound: CCOCCNc1nc2c(s1)C=Cc1cc(Cl)ccc1C2c1cn(C)c(=O)[nH]c1=S (centres unmarked) [Example 16, 5-(7-Chloro-2-((2-ethoxyethyl)amino)-4H-benzo[5,6]cyclohepta[1,2-d]thiazol-4-yl)-1-methyl-4-thioxo-3,4-dihydropyrimidin-2(1H)-one]
Kb (hP2Y2R; [2]): 186 nM

Compound: Cn1cc(C2c3ccc(Cl)cc3C=Cc3sc(NCCOc4ccccc4)nc32)c(=S)[nH]c1=O (centres unmarked) [Example 18, 5-(7-Chloro-2-((2-phenoxyethyl)amino)-4H-benzo[5,6]cyclohepta[1,2-d]thiazol-4-yl)-1-methyl-4-thioxo-3,4-dihydropyrimidin-2(1H)-one]
hP2Y2 pKb (hP2Y2R; [1]): IA (3) (IA = inactive; i.e., less than a 50% inhibition of the response to 0.1 μM UTPγS in the presence of a 10 μM concentration of the compound (n = 3))
hP2Y2R antagonist activity in words (hP2Y2R): inactive

Compound: Cn1cc(C2c3ccc(Cl)cc3C=Cc3sc(-c4ccccc4)nc32)c(=S)[nH]c1=O (centres unmarked) [Example 19, 5-(7-Chloro-2-phenyl-4H-benzo[5,6]cyclohepta[1,2-d]thiazol-4-yl)-1-methyl-4-thioxo-3,4-dihydropyrimidin-2(1H)-one]
hP2Y2 pKb (hP2Y2R; [1]): IA (3) (IA = inactive; i.e., less than a 50% inhibition of the response to 0.1 μM UTPγS in the presence of a 10 μM concentration of the compound (n = 3))
hP2Y2R antagonist activity in words (hP2Y2R): complete loss of affinity

Compound: CCOCCNc1nc2c(s1)C=Cc1cc(Cl)ccc1C2c1cn(C)c(=O)[nH]c1=S (centres unmarked) [Example 22]
hP2Y2 pKb (hP2Y2R; Table 3, resolved enantiomers, shift of UTPγS curve, mean ± SEM): IA ^c (3) (IA = inactive; i.e., less than a 50% inhibition of the response to 0.1 μM UTPγS in the presence of a 10 μM concentration of the compound (n = 3))
Kb (hP2Y2R; Table 7, shift of agonist dose–response curve by a single antagonist concentration, mean ± SEM, read-out: pKb Ca2+ mobilization (converted)): > 10000 nM

Compound: CCOCCNc1nc2c(s1)C=Cc1cc(Cl)ccc1C2c1cn(C)c(=O)[nH]c1=S (centres unmarked) [Example 23]
Kb (hP2Y2R; [3]): 166 nM

Compound: COCCNc1nc2c(s1)C=Cc1cc(Cl)ccc1C2c1cn(Cc2nc(C(=O)Nc3nnn[nH]3)cs2)c(=O)[nH]c1=S (centres unmarked) [Example 24, 2-((5-(7-Chloro-2-((2-methoxyethyl)amino)-4H-benzo[5,6]cyclohepta[1,2-d]thiazol-4-yl)-2-oxo-4-thioxo-3,4-dihydropyrimidin-1(2H)-yl)methyl)-N-(1H-tetrazol-5-yl)thiazole-4-carboxamide]
Kd (hP2Y2R; quoted in text for nonfluorescent antagonists, mean ± SEM, read-out: hP2Y2R affinity pKd (converted)): 95.5 nM

Compound: Cn1cc(C2c3ccc(Cl)cc3C=Cc3sc(NCCC(=O)NCCOCCOCCNC(=O)CCCCCNC(=O)COc4ccc(/C=C/C5=[N+]6C(=Cc7ccc(-c8cccs8)n7[B-]6(F)F)C=C5)cc4)nc32)c(=S)[nH]c1=O (centres unmarked) [Example 80, (E)-N-(2-(2-(2-(3-((7-Chloro-4-(1-methyl-2-oxo-4-thioxo-1,2,3,4-tetrahydropyrimidin-5-yl)-4H-benzo[5,6]cyclohepta[1,2-d]thiazol-2-yl)amino)propanamido)ethoxy)ethoxy)ethyl)-6-(2-(4-(2-(5,5-difluoro-7-(thiophen-2-yl)-5H-4λ^4,5λ^4-dipyrrolo[1,2-c:2′,1′-f][1,3,2]diazaborinin-3-yl)vinyl)phenoxy)acetamido)hexanamide]
Kd (NLuc-P2Y2R; Table 5, saturation binding curves, 1321N1 cells expressing NLuc-P2Y2R, mean ± SEM, read-out: pKd (converted)): 5130 nM
specific NanoBRET signal (NLuc-P2Y2R): largest specific NanoBRET signals

Compound: Cc1cc(C)n2c1C=C1C=CC(CCC(=O)NCCNC(=O)CCNc3nc4c(s3)C=Cc3cc(Cl)ccc3C4c3cn(C)c(=O)[nH]c3=S)=[N+]1[B-]2(F)F (centres unmarked) [Example 85, 3-((7-Chloro-4-(1-methyl-2-oxo-4-thioxo-1,2,3,4-tetrahydropyrimidin-5-yl)-4H-benzo[5,6]cyclohepta[1,2-d]thiazol-2-yl)amino)-N-(2-(3-(5,5-difluoro-7,9-dimethyl-5H-4λ^4,5λ^4-dipyrrolo[1,2-c:2′,1′-f][1,3,2]diazaborinin-3-yl)propanamido)ethyl)propanamide]
specific NanoBRET signal (NLuc-P2Y2R): largest specific NanoBRET signals

Compound: Cc1cc(C)n2c1C=C1C=CC(CCC(=O)NCCCCCC(=O)NCCOCCOCCNC(=O)CCNc3nc4c(s3)C=Cc3cc(Cl)ccc3C4c3cn(C)c(=O)[nH]c3=S)=[N+]1[B-]2(F)F (centres unmarked) [Example 87, N-(2-(2-(2-(3-((7-Chloro-4-(1-methyl-2-oxo-4-thioxo-1,2,3,4-tetrahydropyrimidin-5-yl)-4H-benzo[5,6]cyclohepta[1,2-d]thiazol-2-yl)amino)propanamido)ethoxy)ethoxy)ethyl)-6-(3-(5,5-difluoro-7,9-dimethyl-5H-4λ^4,5λ^4-dipyrrolo[1,2-c:2′,1′-f][1,3,2]diazaborinin-3-yl)propanamido)hexanamide]
specific NanoBRET signal (NLuc-P2Y2R): largest specific NanoBRET signals

Compound: (E)-N1-(2-(6-(2-(4-(2-(5,5-Difluoro-7-(thiophen-2-yl)-5H-4λ^4,5λ^4-dipyrrolo[1,2-c:2′,1′-f][1,3,2]diazaborinin-3-yl)vinyl)phenoxy)acetamido)hexanamido)ethyl)-5-((5-(2,8-dimethyl-5H-dibenzo[a,d][7]annulen-5-yl)-2-oxo-4-thioxo-3,4-dihydropyrimidin-1(2H)-yl)methyl)-N3-(1H-tetrazol-5-yl)isophthalamide [Example 67]
NanoBRET pKd (NLuc-P2Y2R; [4]): 5.78 ± 0.18 (3)

Further lines, with some results ahead:

hP2Y2R antagonist activity in words (hP2Y2R): inactive
Compound: Cn1cc(C2c3ccc(Cl)cc3C=Cc3sc(N4CCOCC4)nc32)c(=S)[nH]c1=O (centres unmarked) [Example 12, 5-(7-Chloro-2-morpholino-4H-benzo[5,6]cyclohepta[1,2-d]thiazol-4-yl)-1-methyl-4-thioxo-3,4-dihydropyrimidin-2(1H)-one]
hP2Y2 pKb (hP2Y2R; [1]): IA (3) (IA = inactive; i.e., less than a 50% inhibition of the response to 0.1 μM UTPγS in the presence of a 10 μM concentration of the compound (n = 3))

hP2Y2R antagonist activity in words (hP2Y2R): inactive
Compound: Cn1cc(C2c3ccc(Cl)cc3C=Cc3sc(N4CCCCC4)nc32)c(=S)[nH]c1=O (centres unmarked) [Example 13, 5-(7-Chloro-2-(piperidin-1-yl)-4H-benzo[5,6]cyclohepta[1,2-d]thiazol-4-yl)-1-methyl-4-thioxo-3,4-dihydropyrimidin-2(1H)-one]
hP2Y2 pKb (hP2Y2R; [1]): IA (3) (IA = inactive; i.e., less than a 50% inhibition of the response to 0.1 μM UTPγS in the presence of a 10 μM concentration of the compound (n = 3))

Kb (hP2Y2R; [2]): 275 nM
Compound: COCCCNc1nc2c(s1)C=Cc1cc(Cl)ccc1C2c1cn(C)c(=O)[nH]c1=S (centres unmarked) [Example 15, 5-(7-Chloro-2-((3-methoxypropyl)amino)-4H-benzo[5,6]cyclohepta[1,2-d]thiazol-4-yl)-1-methyl-4-thioxo-3,4-dihydropyrimidin-2(1H)-one]

Kb (hP2Y2R; [2]): 324 nM
Compound: CC(C)OCCNc1nc2c(s1)C=Cc1cc(Cl)ccc1C2c1cn(C)c(=O)[nH]c1=S (centres unmarked) [Example 17, 5-(7-Chloro-2-((2-isopropoxyethyl)amino)-4H-benzo[5,6]cyclohepta[1,2-d]thiazol-4-yl)-1-methyl-4-thioxo-3,4-dihydropyrimidin-2(1H)-one]

Kb (hP2Y2R; [3]): 234 nM
Compound: COCCNc1nc2c(s1)C=Cc1cc(Cl)ccc1C2c1cn(C)c(=O)[nH]c1=S (centres unmarked) [Example 20]

Kb (hP2Y2R; [3]): 1510 nM
Compound: COCCNc1nc2c(s1)C=Cc1cc(Cl)ccc1C2c1cn(C)c(=O)[nH]c1=S (centres unmarked) [Example 21]

NanoBRET pKd (NLuc-P2Y2R; [4]): 6.07 ± 0.15 (3)
Compound: (E)-N1-(18-(4-(2-(5,5-Difluoro-7-(thiophen-2-yl)-5H-4λ^4,5λ^4-dipyrrolo[1,2-c:2′,1′-f][1,3,2]diazaborinin-3-yl)vinyl)phenoxy)-10,17-dioxo-3,6-dioxa-9,16-diazaoctadecyl)-5-((5-(2,8-dimethyl-5H-dibenzo[a,d][7]annulen-5-yl)-2-oxo-4-thioxo-3,4-dihydropyrimidin-1(2H)-yl)methyl)-N3-(1H-tetrazol-5-yl)isophthalamide [Example 69]
